What was measured:
[1] = system: M109 tumors; assay: Sunitinib/folate-FITC combination therapy in the M109 lung cancer model; assay type: in vivo, mouse (Balb/c); conditions: M109 tumor-bearing mice; FIG. 11
Method: Solid M109 lung tumors were established on the shoulders of KLH-FITC immunized Balb/c mice (5-6 weeks old from Harlan Laboratories, Indianapolis, Ind.) by injecting them subcutaneously with 1×10^6 of syngeneic M109 cells suspended in media containing 1% female Balb/c serum. The mice were treated according to the same dosing schedule described in Examples 1 and 2. The groups of mice were treated with PBS, folate-FITC alone (500 nmols/Kg of folate-FITC in phosphate buffered saline), sunitinib alone, or a combination of folate-FITC (500 nmols/Kg of folate-FITC in phosphate buffered saline) and sunitinib. Following completion of the study and termination of treatment, the treated animals were sacrificed and tumors and spleens were harvested for analysis as described in Example 2.

[2] = system: L1210A tumors; assay: Tyrosine kinase inhibitor/folate-FITC combination therapy in L1210A tumor-bearing mice; assay type: in vivo, mouse (DBA/2); conditions: for tumor volume plot: position of the line at the longest duration (PBS control second line from the bottom): FIG. 4; for tumor volume plot: position of the line at the longest duration (PBS control topmost): FIG. 16
Method: The effect of the combination therapy strategy of Example 1 was evaluated on an alternative tumor type. The […] lymphocytic leukemia cell line was selected due to its high FR expression levels and its ability to grow in immune competent mice. Female DBA/2 mice (purchased from Harlan Laboratories in Indianapolis, Ind.) were used in this model. Mice were injected subcutaneously with 1×10^6 cells suspended in PBS on the left flank. […] Doses of 500 nmols/Kg of folate-FITC in phosphate buffered saline (PBS) by intraperitoneal injection were used in the folate-FITC alone treatment and the combination treatment.
All treatment groups were terminated when tumors in the PBS control group reached 1500 mm^3 and tumors and spleens were harvested for analysis. The excised tumors were digested using a collagenase cocktail and single cell suspensions were stained for the presence of FR, macrophages, MDSC, and T cells and analyzed by flow cytometry. The intra-tumoral vasculature content in mice treated with PBS, folate-FITC alone, sunitinib alone, or a combination of folate-FITC and sunitinib was imaged, as shown in FIG. 6. […] Portions of each tumor were also cryopreserved for sectioning and immunohistochemistry staining. Harvested spleens were also processed into single cell suspensions and analyzed for immune cell content. The percentage of CD4+ and CD8+ cytotoxic T cell in spleens of L1210A tumor-bearing mice treated with PBS, folate-FITC alone, sunitinib alone, or a combination of folate-FITC and sunitinib was determined, as shown in FIG. 5.
A second RTK inhibitor, axitinib, was studied in combination with folate-FITC on one of the tumor models. The combination therapy was tested in the L1210A lymphoma model following the experimental methods detailed in Example 2, using an axitinib concentration of 15 mg/Kg administered daily by oral gavage in place of sunitinib. The groups of mice were treated with PBS, folate-FITC alone (500 nmols/Kg of folate-FITC in phosphate buffered saline), axitinib alone, or a combination of folate-FITC and axitinib. Average weights of tumors and spleens of L1210A tumor-bearing mice are shown in FIGS. 17 and 18, respectively.

[3] = system: Renca tumors; assay: Sunitinib/folate-FITC combination therapy in Renca tumor-bearing mice; assay type: in vivo, mouse (Balb/c); conditions: FIG. 2
Method: In order to test the effect of combining Sunitinib with folate-targeted immunotherapy on tumor regression in a clinically representative model, the combination therapy was evaluated in Renca tumors, a mouse syngeneic kidney cancer cell line. Renca cells were maintained in a folate deficient cell culture medium and were selected for high folate receptor (FR) expression via multiple steps of cell sorting before being used in therapeutic studies. […] In turn, folate-FITC was used as a folate-hapten conjugate in the therapeutic studies. Female Balb/c mice aged 5-6 weeks were purchased from Harlan Laboratories in Indianapolis, Ind. After allowing one week for the mice to acclimate to their environment, they were vaccinated with 35 ug KLH-FITC in 50 ug GPI-0100 as adjuvant. […]
Several days before the third immunization, each mouse was injected subcutaneously on the left flank with 1×10^6 Renca cells in serum free medium. […] Treatment was initiated when tumors measured 50 mm^3. […] Tumor sizes were measured using digital calipers on alternating days, and tumor volumes were calculated using the equation ½ (L×W^2).
Once it was determined that a study needed to be suspended due to tumor size, all animals in the treatment groups were euthanized within 1-2 days and their tumors and spleens harvested for freezing and analysis by flow cytometry. […]

| Structure (SMILES) | tumor volume plot: position of the line at the longest duration (PBS control topmost) [1] | tumor volume plot: position of the line at the longest duration (PBS control second line from the bottom) ([2]; sunitinib study) | average weights of spleens ([2]; sunitinib study, FIG. 9) | tumor volume plot: position of the line at the longest duration (PBS control topmost) [3] | tumor volume plot: position of the line at the longest duration (PBS control topmost) ([2]; axitinib study) | average weights of spleens ([2]; axitinib study, FIG. 18) |
| --- | --- | --- | --- | --- | --- | --- |
| CCN(CC)CCNC(=O)c1c(C)[nH]c(/C=C2\C(=O)Nc3ccc(F)cc32)c1C [sunitinib] | second topmost line | second topmost line | swelling of the spleens | second line from the bottom |  |  |
| Nc1nc2ncc(CNc3ccc(C(=O)NC(CCC(=O)NCCNC(=S)Nc4ccc(-c5c6ccc(=O)cc-6oc6cc(O)ccc56)c(C(=O)O)c4)C(=O)O)cc3)nc2c(=O)[nH]1 (stereo not drawn) [folate-FITC] | second line from the bottom | topmost line | swelling of the spleens | second topmost line | second topmost line | swelling of the spleens |
| CNC(=O)c1ccccc1Sc1ccc2c(/C=C/c3ccccn3)n[nH]c2c1 [axitinib] |  |  |  |  | second line from the bottom | swelling of the spleens |
